Data from patent US20060140957A1, “Eph/ephrin mediated modulation of cell adhesion and tumour cell metastasis” (priority 2003, published 2006).

Experiments:
[1] = test system: EphA3/HEK 293 cells; experiment: Cleavage and internalisation of Alexa-labelled protein from protein A Dynabeads; assay type: cell-based, human; details: 5 mM, 4 h prior to bead addition
Protocol: (§1) FIG. 6. Eph/ephrin mediated cell-cell repulsion, but not adhesion leads to ephrinA5 cleavage by a metalloprotease. • (A) Alexa ephrinA5-Fc (I, III) or Alexa EphA1 Fc (II) control proteins, conjugated onto protein A-coated Dynabeads were added to cultures of EphA3/HEK 293 cells (I, II) or LK63 cells (III). Cleavage and internalisation of the fluorescent proteins was monitored by confocal microscopy. Selected images of confocal time-lapse experiments (1 frame/min) are shown. Alexa 546 fluorescence is represented in white and outlines cells in panels I, while the cells in panels II, III appear dark-grey or black. • (B) Prior to stimulation (30 min) with Alexa ephrinA5-Fc coated beads (I, II) or with Alexa Fc control beads (III), parallel cultures of EphA3/293 cells were treated for 4 h with 5 mM 1′,10′-O-Phenanthroline (II) or left untreated (I, III). […] Using an EphA3-Fc construct, ephrin-A5 was immuno precipitated from lysates of EphA3/HEK 293 cells or LK63 cells, which had been treated for indicated times with 7.5 ì g/ml of pre-clustered (+X-lnk) or non-clustered (−X-lnk) ephrin-A5 Fc, and analysed for ephrin cleavage by Western blot with anti-ephrinA5 antibody. […]
Eph/ephrin stimulation was analysed in-situ by time-lapse confocal microscopy and immunocytochemistry as described (Lawrenson et al., 2002). […]

[2] = test system: EphA3/HEK 293 cells; experiment: Biochemical demonstration of ephrin cleavage (Western blot); assay type: cell-based, human; details: cells stimulated with clustered ephrin-A5 Fc
Protocol: as §1, with “antibody. To assess cleavage by metalloproteases, parallel cultures were treated with 1′,10′-O-phenanthroline (+OPN) or left untreated.” for “antibody.”

[3] = test system: EphA3/A02 malignant melanoma cells; experiment: Phosphatase inhibition, anti-EphA3 IP / anti-phosphotyrosine western blot; assay type: cell-based; details: increasing amounts
Protocol: (§2) FIG. 8. Phosphatase inhibition triggers EphA3 phosphorylation in LK63 cells • (A) Anti-EphA3 immunoprecipitates from TritonX100 lysates of EphA3/HEK 293, EphA3/AO2 melanoma cells and LK63 leukaemia cells were treated with either crosslinked ephrin-A5 or increasing concentrations of sodium pervanadate as indicated, and analysed by anti-phosphotyrosine western blot. • (B) Anti-EphA3 immunoprecipitates from TritonX100 lysates of vanadate or hydrogen peroxide-treated EphA3/HEK 293 (left panel) and EphA3/AO2 melanoma cells(right panel) were analysed as described in (A).

[4] = test system: EphA3/HEK 293 cells; experiment: as above; assay type: cell-based, human; details: increasing amounts
Protocol: as §2

[5] = test system: LK63 cells; experiment: Cell morphology on ephrinA5-Fc coated glass coverslips (rhodamin-phalloidin); assay type: cell-based, human; details: 4 h
Protocol: FIG. 1. Surface-bound ephrinA5 causes either cell repulsion or cell adhesion of EphA3-positive tumour cells. • (A) EphA3-positive LK63 human pre-B leukemia cells and LiBr melanoma cells were plated onto glass coverslips coated with ephrinA5-Fc (ephrin, 10 μg/ml) or fibronectin (FN, 10 μg/ml). After 4h the cytoskeleton of adherent, fixed cells was stained with rhodamin-phalloidin. Pictures of representative fluorescence images are shown; the second column represents magnified sections of the first. Scale bar: 20 ì m. • (B) LK63 adhesion and LiBr de-adhesion to surface-bound ephrinA5 are dose-dependent. […] After 4-hour incubation, adherent cells, withstanding rigorous washing, were quantitated by XTT assay (A492 absorbance). Cell attachment is expressed as a percentage (mean, S.E. from three independent assays) relative to wells containing most adherent cells; ( ), LK63 and ( ), LiBr cells and ( ), LK63, ( ), LiBr cells with ephrin inhibition (+inh.). • (C) LiBr melanoma cells in matrigel-coated Basement Membrane migration chambers (Becton Dickinson, 5×10^4/well) were exposed to chemoattractant, 3T3 conditioned media (cond. media) or 1.5 ì g/ml pre-clustered ephrin-A5 Fc in the bottom chamber, or with 1.5 ì g/mil pre-clustered ephrin-A5 Fc placed together with cells into the top chamber. […]

[6] = test system: HEK293 cells expressing 3YF EphA3GFP; experiment: FLIM/FRET of EphA3 phosphorylation after phosphatase inhibition; assay type: cell-based, human; details: 30 min, high concentrations
Protocol: (§3) FIG. 7. Pervanadate-induced Eph receptor phosphorylation HEK293 cells, expressing w/t EphA3GFP (A) or 3YF EphA3GFP (B) were incubated with pervanadate (30 min) at indicated concentrations. Fixed cells were examined for FRET as described above. Left, GFP-fluorescence; right, GFP fluorescence lifetime phase maps. Tabulated colour codes indicate GFP lifetimes in ns.
(§4) GFP EphA3 (w/t or mutant) expressing cells were stimulated, fixed, permeabilised and stained with Cy3-conjugated anti phosphotyrosine monoclonal antibody PY72 prior to mounting onto glass slides using Mowiol (Calbiochem). Fluorescence lifetime imaging microscopy (FLIM) sequences were obtained at 80 MHz with an Olympus IX70 microscope (100/1.4 NA oil immersion lens) and analysed as described (Reynolds, Tischer et al. 2003). A 476-nm argon laser line and narrow-band emission filter (HQ510/20; Chroma) were used for GFP, a 100-W mercury arc lamp with high Q Cy3 filter set (excite, HQ545/30; dicroic, Q580LP; emitter, HQ610/75) for Cy3 and Alexa 546. GFP Fluorescence was detected with a dichroic beamsplitter (Q495 LP; Chroma Technology, Brattleboro, Vt.) and narrow-band emission filter. Stimulated FRET was measured in live 293 cells between transiently expressed ephrin-A2GFP and Alexa546 EphA3-Fc.

[7] = test system: HEK293 cells expressing w/t EphA3GFP; experiment: as above; assay type: cell-based, human; details: 30 min, increasing concentrations
Protocol: as §3, §4

[8] = test system: LK63 leukaemia cells; experiment: Phosphatase inhibition, anti-EphA3 IP / anti-phosphotyrosine western blot; assay type: cell-based, human; details: highest concentration tested (1 mM)
Protocol: as §2

Row | Compound | effect on ephrin cleavage and internalisation from Alexa ephrin-A5-Fc beads [1] | effect on ephrin cleavage (anti-ephrinA5 Western blot) [2] | EphA3 phosphorylation [3] | EphA3 phosphorylation [4] | LK63 morphology on ephrin-coated coverslips under phosphatase inhibition [5] | GFP fluorescent lifetime (receptor phosphorylation) [6] | GFP fluorescent lifetime (receptor phosphorylation) [7] | EphA3 phosphorylation compared with EphA3/HEK 293 and EphA3/A02 cells [8]
1 | c1cnc2c(c1)ccc1cccnc12 [1′,10′-O-Phenanthroline] | completely abrogated ephrin cleavage and internalisation | significantly-reduced ephrin cleavage |  |  |  |  |  | 
2 | OO [H2O2, hydrogen peroxide] |  |  | dose dependent increase in EphA3 phosphorylation | dose dependent increase in EphA3 phosphorylation |  |  |  | 
3 | sodium-pervanadate |  |  | dose dependent increase in EphA3 phosphorylation | dose dependent increase in EphA3 phosphorylation | lose their characteristic extensions and appear rounded | retained their GFP lifetime | dramatic dose-dependent decrease in the GFP fluorescent lifetime | significantly lower
